Here are results for nine molecules from patent publication US10214546B2, “Btk inhibitors” (MERCK SHARP & DOHME CORP., priority 2014, dated 2019).

Read-outs that look alike come from different tables or passages of the source.

Assay [1] deals with adenosine uptake into HeLa cells. As to the kind of experiment: [3H]Adenosine uptake assay in HeLa cells. It is filed as cell-based. To be noted: [3H]adenosine accumulation in HeLa cells, compound range 10 μM to 0.032 nM, read-out: ADU inhibition IC50. In short, it runs like this:
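IC50 came from a 4-parameter fit of counts per second over a ten-point, 1:3 titration (final 10 µM down to […]). Compound was applied 30 min at ambient temperature in HBSS/5% FBS before a 500 nM [3H]adenosine solution was added; uptake ran 60 min, read by Cytostar-T proximity scintillation.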

In assay [2] the target is BTK enzyme (recombinant full-length BTK, hBTK) (Homo sapiens (Human), UniProt Q06187). Description: BTK enzymatic activity LANCE TR-FRET assay. Format: biochemical. To be noted: 50 pM hBTK, 25 μM ATP, 2 μM biotin-A5-peptide; compound range 1 μM to 0.017 nM; read-out: BTK binding IC50.
Chain of BTK enzyme (recombinant full-length BTK, hBTK) (Q06187 whole entry): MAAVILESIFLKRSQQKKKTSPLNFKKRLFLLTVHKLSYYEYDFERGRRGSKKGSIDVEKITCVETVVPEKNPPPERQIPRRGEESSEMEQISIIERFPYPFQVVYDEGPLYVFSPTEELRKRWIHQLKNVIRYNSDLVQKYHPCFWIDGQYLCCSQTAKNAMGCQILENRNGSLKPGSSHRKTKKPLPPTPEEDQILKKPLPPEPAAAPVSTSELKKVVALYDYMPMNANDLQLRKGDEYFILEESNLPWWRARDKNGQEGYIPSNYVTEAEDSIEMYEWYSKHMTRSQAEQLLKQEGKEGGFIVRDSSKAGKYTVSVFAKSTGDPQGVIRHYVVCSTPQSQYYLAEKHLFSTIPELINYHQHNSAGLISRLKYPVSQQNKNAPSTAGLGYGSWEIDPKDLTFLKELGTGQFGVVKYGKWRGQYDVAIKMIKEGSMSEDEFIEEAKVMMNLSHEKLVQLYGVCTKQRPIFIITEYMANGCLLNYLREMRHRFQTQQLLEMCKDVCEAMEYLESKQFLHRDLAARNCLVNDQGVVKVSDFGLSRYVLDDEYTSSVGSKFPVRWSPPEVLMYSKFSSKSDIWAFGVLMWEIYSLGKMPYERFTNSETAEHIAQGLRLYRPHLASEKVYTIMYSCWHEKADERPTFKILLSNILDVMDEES

`CC(O)(c1ccc(-c2nc([C@@H]3CC[C@H]4CCC(=O)N4C3)n3ccnc(N)c23)cc1)c1cccc(C2CC2(F)F)c1` (stereo partly drawn) [Example 159, (6R,8aS)-6-[8-amino-1-(4-{1-[3-(2,2-difluorocyclopropyl)phenyl]-1-hydroxyethyl}phenyl)imidazo[1,5-a]pyrazin-3-yl]hexahydroindolizin-3(2H)-one]: the IC50 in assay [1] came out at 1880 nM; in assay [2], 0.1 nM.

As for `CC(O)(c1ccc(-c2nc([C@@H]3CC[C@H]4CCC(=O)N4C3)n3ccnc(N)c23)cc1)c1cccc(C2CC2(F)F)c1` (stereo partly drawn) [Example 160, (6R,8aS)-6-[8-amino-1-(4-{1-[3-(2,2-difluorocyclopropyl)phenyl]-1-hydroxyethyl}phenyl)imidazo[1,5-a]pyrazin-3-yl]hexahydroindolizin-3(2H)-one], the IC50 was determined as 1840 nM in assay [1] and 0.07 nM in assay [2].

Turning to `CC1(C)CC(=O)N2C[C@@H](c3nc(-c4ccc([C@@](C)(O)c5cccc(C(F)(F)F)c5)cc4)c4c(N)nccn34)CC[C@@H]21` [Example 161, (6S,8aR)-6-[8-amino-1-(4-{(1R)-1-hydroxy-1-[3-(trifluoromethyl)phenyl]ethyl}phenyl)imidazo [1,5-a]pyrazin-3-yl]-1,1-dimethylhexahydroindolizin-3(2H)-one], the IC50 amounted to 2140 nM in assay [1] (Homo sapiens, HeLa) and 0.27 nM in assay [2].

Consider `CCOc1cc(C(C)(O)c2cccc(C(F)(F)F)c2)ccc1-c1nc([C@@H]2CC[C@H]3CCC(=O)N3C2)n2ccnc(N)c12` (stereo partly drawn) [Example 162, (6R,8aS)-6-[8-amino-1-(2-ethoxy-4-{1-hydroxy-1-[3-(trifluoromethyl)phenyl]ethyl}phenyl)imidazo [1,5-a]pyrazin-3-yl]hexahydroindolizin-3(2H)-one], for which the IC50 in assay [1] (Homo sapiens, HeLa) is 4210 nM; in assay [2], 0.63 nM.

Turning to `CC1(C)CC(=O)N2C[C@@H](c3nc(-c4ccc([C@@](C)(O)c5cccc(C(F)(F)F)c5)cc4)c4c(N)nccn34)CC[C@@H]21` [Example 163, (6S,8aR)-6-[8-amino-1-(4-{(1R)-1-hydroxy-1-[3-(trifluoromethyl)phenyl]ethyl}phenyl)imidazo [1,5-a]pyrazin-3-yl]-1,1-dimethylhexahydroindolizin-3(2H)-one], the IC50 in assay [1] is 1560 nM; in assay [2], 169 nM.

For the molecule `CC(O)(c1ccc(-c2nc([C@@H]3CC[C@H]4CCC(=O)N4C3)n3ccnc(N)c23)cc1)c1cccc(C2CC2(F)F)c1` (stereo partly drawn) [Example 164, (6R,8aS)-6-[8-amino-1-(4-{1-[3-(2,2-difluorocyclopropyl)phenyl]-1-hydroxyethyl}phenyl)imidazo[1,5-a]pyrazin-3-yl]hexahydroindolizin-3(2H)-one], the IC50 is 830 nM in assay [1] and 48 nM in assay [2].

`CC(O)(c1ccc(-c2nc([C@@H]3CC[C@H]4CCC(=O)N4C3)n3ccnc(N)c23)cc1)c1cccc(C2CC2(F)F)c1` (stereo partly drawn) [Example 165, (6R,8aS)-6-[8-amino-1-(4-{1-[3-(2,2-difluorocyclopropyl)phenyl]-1-hydroxyethyl}phenyl)imidazo[1,5-a]pyrazin-3-yl]hexahydroindolizin-3(2H)-one]: the figures for the IC50 in assay [1] and in assay [2] were 1090 nM and 28.9 nM, respectively.

In the case of `CCOc1cc(C(C)(O)c2cccc(C)c2)ccc1-c1nc([C@@H]2CC[C@H]3CCC(=O)N3C2)n2ccnc(N)c12` (stereo partly drawn) [Example 166, (6R,8aS)-6-(8-amino-1-{2-ethoxy-4-[1-hydroxy-1-(3-methylphenyl)ethyl]phenyl}imidazo[1,5-a]pyrazin-3-yl)hexahydroindolizin-3(2H)-one], the half-maximal inhibitory concentration (IC50) is 10000 nM in assay [1] and 2 nM in assay [2].

As for `CCOc1cc(C(C)(O)c2cccc(C(F)(F)F)c2)ccc1-c1nc([C@@H]2CC[C@H]3CCC(=O)N3C2)n2ccnc(N)c12` (stereo partly drawn) [Example 167, (6R,8aS)-6-[8-amino-1-(2-ethoxy-4-{1-hydroxy-1-[3-(trifluoromethyl)phenyl]ethyl}phenyl)imidazo [1,5-a]pyrazin-3-yl]hexahydroindolizin-3(2H)-one], the values for the IC50 in assay [1] and in assay [2] were 2410 nM and 20.6 nM, respectively.
